Experiments:
[1] = target: T1, Peptidyl-prolyl cis-trans isomerase FKBP5 (Homo sapiens, UniProt Q13451)
T1 sequence (Q13451 whole entry): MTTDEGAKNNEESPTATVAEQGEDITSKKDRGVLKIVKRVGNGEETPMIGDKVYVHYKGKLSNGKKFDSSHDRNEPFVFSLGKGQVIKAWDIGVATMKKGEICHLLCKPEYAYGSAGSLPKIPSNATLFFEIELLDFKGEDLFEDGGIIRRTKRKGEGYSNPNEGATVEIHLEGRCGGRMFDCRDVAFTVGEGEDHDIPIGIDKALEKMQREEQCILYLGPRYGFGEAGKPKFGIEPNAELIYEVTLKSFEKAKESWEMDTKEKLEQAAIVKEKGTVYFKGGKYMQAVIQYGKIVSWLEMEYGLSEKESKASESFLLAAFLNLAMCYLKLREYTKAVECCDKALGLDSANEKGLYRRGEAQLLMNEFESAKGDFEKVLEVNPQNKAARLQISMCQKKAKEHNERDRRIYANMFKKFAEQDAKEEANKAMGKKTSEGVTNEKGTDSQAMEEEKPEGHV

[2] = target: T2, Peptidyl-prolyl cis-trans isomerase FKBP4 (Homo sapiens, UniProt Q02790); assay: Binding affinity to FKBP52 (unknown origin) by competitive fluorescence polarization assay
T2 sequence (Q02790 whole entry): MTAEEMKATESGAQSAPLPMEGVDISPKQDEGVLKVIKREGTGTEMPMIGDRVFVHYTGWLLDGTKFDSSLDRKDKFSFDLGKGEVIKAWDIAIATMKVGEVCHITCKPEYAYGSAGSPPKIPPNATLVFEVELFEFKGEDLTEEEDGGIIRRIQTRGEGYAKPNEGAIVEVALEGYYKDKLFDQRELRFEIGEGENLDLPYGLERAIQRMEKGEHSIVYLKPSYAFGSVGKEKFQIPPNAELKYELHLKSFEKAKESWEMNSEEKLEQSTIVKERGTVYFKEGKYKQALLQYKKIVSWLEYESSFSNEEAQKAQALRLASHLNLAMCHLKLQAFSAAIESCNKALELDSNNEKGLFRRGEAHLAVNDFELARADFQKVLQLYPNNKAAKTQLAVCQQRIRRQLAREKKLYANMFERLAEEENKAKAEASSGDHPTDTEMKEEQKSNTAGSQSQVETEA

[3] = target: Peptidyl-prolyl cis-trans isomerase FKBP1A (Homo sapiens, UniProt P62942); assay: Binding affinity to FKBP12 (unknown origin) by competitive fluorescence polarization assay
Chain of Peptidyl-prolyl cis-trans isomerase FKBP1A (P62942 whole entry): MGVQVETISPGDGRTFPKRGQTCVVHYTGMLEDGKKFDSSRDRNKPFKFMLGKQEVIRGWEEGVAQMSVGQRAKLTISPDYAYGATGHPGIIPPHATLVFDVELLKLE

Row | Ki [1] | Ki [2] | Ki [3] | SMILES
1 | 4 nM | > 50000 nM | 90 nM | COc1ccc(CC[C@@H](OC(=O)[C@@H]2CCCCN2C(=O)[C@H](c2cc(OC)c(OC)c(OC)c2)C2CCCCC2)c2cccc(OCC(=O)O)c2)cc1OC
2 | 110 nM | > 50000 nM | 600 nM | COc1cc(OC)cc([C@@H](C(=O)N2CCCC[C@H]2C(=O)O[C@H](CCc2ccc(OC)c(OC)c2)c2cccc(OCC(=O)O)c2)C2CCCCC2)c1
3 | 160 nM | > 100000 nM | 1200 nM | COc1cccc([C@@H](C(=O)N2CCCC[C@H]2C(=O)O[C@H](CCc2ccc(OC)c(OC)c2)c2cccc(OCC(=O)O)c2)C2CCCCC2)c1
4 |  | 9700 nM | 300 nM | COc1ccc(CC[C@@H](OC(=O)[C@@H]2CCCCN2C(=O)CC2CCCCC2)c2cccc(OCC(=O)O)c2)cc1OC

— ChEMBL document CHEMBL3621038, “Structure-Affinity Relationship Analysis of Selective FKBP51 Ligands” (J Med Chem, 2015)
